Reference: the CheMixHub viscosity set
“And” between values parts separate entries of the source, which are not always exact repeats. Identical values can stand only once. ± gives the uncertainty stated by the source.

Assay: xn = mol fraction of the nth substance listed

SMILES: CS(C)=O + O
- viscosity (293.15 K, 101 kPa, x1 = 0.01): 1.11 ± 0.03 mPa·s
- viscosity (293.15 K, 101 kPa, x1 = 0.025): 1.23 ± 0.03 mPa·s
- viscosity (293.15 K, 101 kPa, x1 = 0.039): 1.38 ± 0.04 mPa·s
- viscosity (293.15 K, 101 kPa, x1 = 0.05): 1.502 ± 0.015 mPa·s
- viscosity (293.15 K, 101 kPa, x1 = 0.055): 1.55 ± 0.04 mPa·s
- viscosity (293.15 K, 101 kPa, x1 = 0.071): 1.74 ± 0.04 mPa·s
- viscosity (293.15 K, 101 kPa, x1 = 0.09): 1.97 ± 0.05 mPa·s
- viscosity (293.15 K, 101 kPa, x1 = 0.11): 2.23 ± 0.06 mPa·s
- viscosity (293.15 K, 101 kPa, x1 = 0.13): 2.54 ± 0.06 mPa·s
- viscosity (293.15 K, 101 kPa, x1 = 0.15): 2.815 ± 0.028 mPa·s
- viscosity (293.15 K, 101 kPa, x1 = 0.16): 2.9 ± 0.07 mPa·s
- viscosity (293.15 K, 101 kPa, x1 = 0.19): 3.28 ± 0.08 mPa·s
- viscosity (293.15 K, 101 kPa, x1 = 0.22): 3.68 ± 0.09 mPa·s
- viscosity (293.15 K, 101 kPa, x1 = 0.25): 4.042 ± 0.043 mPa·s
- viscosity (293.15 K, 101 kPa, x1 = 0.26): 4.02 ± 0.1 mPa·s
- viscosity (293.15 K, 101 kPa, x1 = 0.3): 4.26 ± 0.11 mPa·s
- viscosity (293.15 K, 101 kPa, x1 = 0.35): 4.375 ± 0.053 mPa·s and 4.4 ± 0.11 mPa·s
- viscosity (293.15 K, 101 kPa, x1 = 0.41): 4.29 ± 0.11 mPa·s
- viscosity (293.15 K, 101 kPa, x1 = 0.48): 3.913 ± 0.06 mPa·s and 3.97 ± 0.1 mPa·s
- viscosity (293.15 K, 101 kPa, x1 = 0.57): 3.54 ± 0.09 mPa·s
- viscosity (293.15 K, 101 kPa, x1 = 0.67): 3.08 ± 0.08 mPa·s
- viscosity (293.15 K, 101 kPa, x1 = 0.73): 2.9 ± 0.06 mPa·s
- viscosity (293.15 K, 101 kPa, x1 = 0.81): 2.62 ± 0.07 mPa·s
- viscosity (293.15 K, 101.3 kPa, x1 = 0.012): 1.112 ± 0.029 mPa·s
- viscosity (293.15 K, 101.3 kPa, x2 = 0.1906): 2.569 ± 0.067 mPa·s
- viscosity (293.15 K, 101.3 kPa, x2 = 0.3252): 2.966 ± 0.078 mPa·s
- viscosity (293.15 K, 101.3 kPa, x2 = 0.5203): 3.891 ± 0.1 mPa·s
- viscosity (293.15 K, 101.3 kPa, x2 = 0.6501): 4.352 ± 0.11 mPa·s
- viscosity (293.15 K, 101.3 kPa, x2 = 0.743): 3.998 ± 0.1 mPa·s
- viscosity (293.15 K, 101.3 kPa, x2 = 0.8183): 3.231 ± 0.084 mPa·s
- viscosity (293.15 K, 101.3 kPa, x2 = 0.8668): 2.57 ± 0.067 mPa·s
- viscosity (293.15 K, 101.3 kPa, x2 = 0.9101): 2.008 ± 0.052 mPa·s
- viscosity (293.15 K, 101.3 kPa, x2 = 0.9455): 1.575 ± 0.041 mPa·s
- viscosity (293.15 K, 101.3 kPa, x2 = 0.9751): 1.247 ± 0.033 mPa·s
- viscosity (293.15 K, 101.33 kPa, x1 = 0.00588): 1.053 ± 0.052 mPa·s
- viscosity (293.15 K, 101.33 kPa, x1 = 0.012): 1.112 ± 0.054 mPa·s
- viscosity (293.15 K, 101.33 kPa, x1 = 0.02498): 1.264 ± 0.061 mPa·s
- viscosity (293.15 K, 101.33 kPa, x1 = 0.03901): 1.402 ± 0.067 mPa·s
- viscosity (293.15 K, 101.33 kPa, x1 = 0.04864): 1.515 ± 0.072 mPa·s
- viscosity (293.15 K, 101.33 kPa, x1 = 0.0545): 1.559 ± 0.074 mPa·s
- viscosity (293.15 K, 101.33 kPa, x1 = 0.08993): 2.009 ± 0.093 mPa·s
- viscosity (293.15 K, 101.33 kPa, x1 = 0.1332): 2.589 ± 0.12 mPa·s
- viscosity (293.15 K, 101.33 kPa, x1 = 0.1469): 2.743 ± 0.12 mPa·s
- viscosity (293.15 K, 101.33 kPa, x1 = 0.1874): 3.319 ± 0.15 mPa·s
- viscosity (293.15 K, 101.33 kPa, x1 = 0.2998): 4.296 ± 0.19 mPa·s
- viscosity (293.15 K, 101.33 kPa, x1 = 0.3498): 4.385 ± 0.19 mPa·s
- viscosity (293.15 K, 101.33 kPa, x1 = 0.4498): 4.091 ± 0.18 mPa·s
- viscosity (293.15 K, 101.33 kPa, x1 = 0.5665): 3.498 ± 0.16 mPa·s
- viscosity (293.15 K, 101.33 kPa, x1 = 0.651): 3.211 ± 0.14 mPa·s
- viscosity (293.15 K, 101.33 kPa, x1 = 0.7539): 2.743 ± 0.12 mPa·s
- viscosity (293.15 K, 101.33 kPa, x1 = 0.847): 2.514 ± 0.11 mPa·s
- viscosity (298.15 K, 101 kPa, x1 = 0.01869): 1.01 ± 0.3 mPa·s
- viscosity (298.15 K, 101 kPa, x1 = 0.0406): 1.19 ± 0.36 mPa·s
- viscosity (298.15 K, 101 kPa, x1 = 0.05): 1.318 ± 0.012 mPa·s
- viscosity (298.15 K, 101 kPa, x1 = 0.06619): 1.44 ± 0.43 mPa·s
- viscosity (298.15 K, 101 kPa, x1 = 0.15): 2.438 ± 0.025 mPa·s
- viscosity (298.15 K, 101 kPa, x1 = 0.2): 3.156 ± 0.034 mPa·s
- viscosity (298.15 K, 101 kPa, x1 = 0.25): 3.4 ± 0.04 mPa·s
- viscosity (298.15 K, 101 kPa, x1 = 0.35): 3.763 ± 0.05 mPa·s
- viscosity (298.15 K, 101 kPa, x1 = 0.4): 3.799 ± 0.038 mPa·s
- viscosity (298.15 K, 101 kPa, x1 = 0.48): 3.395 ± 0.053 mPa·s and 3.446 ± 0.089 mPa·s
- viscosity (298.15 K, 101 kPa, x1 = 0.6): 3.008 ± 0.036 mPa·s
- viscosity (298.15 K, 101 kPa, x1 = 0.73): 2.507 ± 0.052 mPa·s
- viscosity (298.15 K, 101 kPa, x1 = 0.8): 2.375 ± 0.043 mPa·s
- viscosity (298.15 K, 101 kPa, x2 = 0.047): 2.054 ± 0.02 mPa·s
- viscosity (298.15 K, 101 kPa, x2 = 0.089): 2.118 ± 0.021 mPa·s
- viscosity (298.15 K, 101 kPa, x2 = 0.186): 2.298 ± 0.026 mPa·s
- viscosity (298.15 K, 101 kPa, x2 = 0.2): 2.3 ± 0.1 mPa·s
- viscosity (298.15 K, 101 kPa, x2 = 0.3): 2.7 ± 0.1 mPa·s
- viscosity (298.15 K, 101 kPa, x2 = 0.335): 2.708 ± 0.037 mPa·s
- viscosity (298.15 K, 101 kPa, x2 = 0.522): 3.449 ± 0.059 mPa·s
- viscosity (298.15 K, 101 kPa, x2 = 0.59): 3.676 ± 0.067 mPa·s
- viscosity (298.15 K, 101 kPa, x2 = 0.651): 3.764 ± 0.073 mPa·s
- viscosity (298.15 K, 101 kPa, x2 = 0.702): 3.674 ± 0.075 mPa·s
- viscosity (298.15 K, 101 kPa, x2 = 0.743): 3.467 ± 0.073 mPa·s
- viscosity (298.15 K, 101 kPa, x2 = 0.812): 2.854 ± 0.064 mPa·s
- viscosity (298.15 K, 101 kPa, x2 = 0.867): 2.232 ± 0.053 mPa·s
- viscosity (298.15 K, 101 kPa, x2 = 0.91): 1.748 ± 0.043 mPa·s
- viscosity (298.15 K, 101 kPa, x2 = 0.945): 1.382 ± 0.035 mPa·s
- viscosity (298.15 K, 101 kPa, x2 = 0.975): 1.11 ± 0.029 mPa·s
- viscosity (298.15 K, 101.3 kPa, x1 = 0.012): 0.986 ± 0.026 mPa·s
- viscosity (298.15 K, 101.3 kPa, x2 = 0.1906): 2.299 ± 0.06 mPa·s
- viscosity (298.15 K, 101.3 kPa, x2 = 0.3252): 2.63 ± 0.069 mPa·s
- viscosity (298.15 K, 101.3 kPa, x2 = 0.5203): 3.38 ± 0.088 mPa·s
- viscosity (298.15 K, 101.3 kPa, x2 = 0.6501): 3.727 ± 0.097 mPa·s
- viscosity (298.15 K, 101.3 kPa, x2 = 0.743): 3.414 ± 0.089 mPa·s
- viscosity (298.15 K, 101.3 kPa, x2 = 0.8183): 2.773 ± 0.072 mPa·s
- viscosity (298.15 K, 101.3 kPa, x2 = 0.9101): 1.747 ± 0.045 mPa·s
- viscosity (298.15 K, 101.3 kPa, x2 = 0.9455): 1.383 ± 0.036 mPa·s
- viscosity (298.15 K, 101.3 kPa, x2 = 0.9751): 1.101 ± 0.029 mPa·s
- viscosity (298.15 K, 101.33 kPa, x2 = 0.2097): 2.291 ± 0.11 mPa·s
- viscosity (298.15 K, 101.33 kPa, x2 = 0.3132): 2.568 ± 0.12 mPa·s
- viscosity (298.15 K, 101.33 kPa, x2 = 0.409): 2.909 ± 0.13 mPa·s
- viscosity (298.15 K, 101.33 kPa, x2 = 0.503): 3.197 ± 0.14 mPa·s
- viscosity (298.15 K, 101.33 kPa, x2 = 0.7032): 3.569 ± 0.16 mPa·s
- viscosity (298.15 K, 101.33 kPa, x2 = 0.8053): 2.858 ± 0.13 mPa·s
- viscosity (298.15 K, 101.33 kPa, x2 = 0.9021): 1.787 ± 0.083 mPa·s
